Test results: PubChem BioAssay AID1259407 (Chemical Carcinogenesis Research Information System (CCRIS), 2018)
Activity calls are given as the source filed them. How the calls were made is not given here.

Tested on: CCRIS mutagenicity, Ames/micronucleus/aberration tests
Experiment: CCRIS mutagenicity studies

Cc1cc(O)cc2oc(=O)c3c(O)cc(O)cc3c12
mutagenic call (Test System: AMES SALMONELLA TYPHIMURIUM, Strain/Indicator: TA98, Metabolic Activation: NONE, Method: STANDARD PLATE): inactive; negative | mutagenic call (Test System: AMES SALMONELLA TYPHIMURIUM, Strain/Indicator: TA98, Metabolic Activation: RAT LIVER S-9, AROCLOR 1254, Method: STANDARD PLATE): inactive; negative | mutagenic call (Test System: AMES SALMONELLA TYPHIMURIUM, Strain/Indicator: TA98, Metabolic Activation: RAT, LIVER, S-9, AROCLOR 1254, Method: STANDARD PLATE): inactive; negative | mutagenic call (Test System: AMES SALMONELLA TYPHIMURIUM, Strain/Indicator: TA100, Metabolic Activation: NONE, Method: STANDARD PLATE): inactive; negative | mutagenic call (Test System: AMES SALMONELLA TYPHIMURIUM, Strain/Indicator: TA100, Metabolic Activation: RAT LIVER S-9, AROCLOR 1254, Method: STANDARD PLATE): inactive; negative | mutagenic call (Test System: AMES SALMONELLA TYPHIMURIUM, Strain/Indicator: TA100, Metabolic Activation: RAT, LIVER, S-9, AROCLOR 1254, Method: STANDARD PLATE): inactive; negative | mutagenic call (Test System: Ames Salmonella typhimurium, Strain/Indicator: TA97, Metabolic Activation: None, Method: Standard plate): inactive; negative. nitrosation did not increase mutagenic activity | mutagenic call (Test System: Ames Salmonella typhimurium, Strain/Indicator: TA97, Metabolic Activation: Rat, Liver, S-9, Aroclor 1254 (10%), Method: Standard plate): inactive; negative. nitrosation did not increase mutagenic activity | mutagenic call (Test System: Ames Salmonella typhimurium, Strain/Indicator: TA102, Metabolic Activation: None, Method: Standard plate): active; positive. nitrosation led to mutagenic product | mutagenic call (Test System: Ames Salmonella typhimurium, Strain/Indicator: TA102, Metabolic Activation: Rat, Liver, S-9, Aroclor 1254 (10%), Method: Standard plate): active; positive. nitrosation led to mutagenic product | mutagenic call (Test System: Ames Salmonella typhimurium, Strain/Indicator: TA104, Metabolic Activation: None, Method: Standard plate): inactive; negative. nitrosation did not increase mutagenic activity | mutagenic call (Test System: Ames Salmonella typhimurium, Strain/Indicator: TA104, Metabolic Activation: Rat, Liver, S-9, Aroclor 1254 (10%), Method: Standard plate): inactive; negative. nitrosation did not increase mutagenic activity

CN(C)c1ccc(N(C)C)cc1
mutagenic call (End Point: IN VITRO CHROMOSOMAL ABERRATIONS, Test System: CHINESE HAMSTER LUNG CELLS (CHL), Metabolic Activation: NONE): active; positive (structural changes) | mutagenic call (End Point: IN VITRO CHROMOSOMAL ABERRATIONS, Test System: CHINESE HAMSTER LUNG CELLS (CHL), Metabolic Activation: RAT, LIVER, S-9, KC-400): active; positive (structural changes) | mutagenic call (End Point: IN VITRO CHROMOSOMAL ABERRATIONS, Test System: CHINESE HAMSTER OVARY CELLS (CHO), Metabolic Activation: NONE): active; positive at highest dose | mutagenic call (End Point: IN VITRO CHROMOSOMAL ABERRATIONS, Test System: CHINESE HAMSTER OVARY CELLS (CHO), Metabolic Activation: RAT, LIVER, S-9, AROCLOR 1254): active; positive (structural changes) | mutagenic call (Test System: AMES SALMONELLA TYPHIMURIUM, Strain/Indicator: TA97, Metabolic Activation: HAMSTER, LIVER, S-9, AROCLOR 1254 (10%), Method: PREINCUBATION): active; positive | mutagenic call (Test System: AMES SALMONELLA TYPHIMURIUM, Strain/Indicator: TA97, Metabolic Activation: RAT, LIVER, S-9, AROCLOR 1254 (10%), Method: PREINCUBATION): active; positive | mutagenic call (Test System: AMES SALMONELLA TYPHIMURIUM, Strain/Indicator: TA97, Metabolic Activation: RAT, LIVER, S-9, AROCLOR 1254 (30%), Method: PREINCUBATION): inactive; negative | mutagenic call (Test System: AMES SALMONELLA TYPHIMURIUM, Strain/Indicator: TA98, Metabolic Activation: HAMSTER, LIVER, S-9, AROCLOR 1254 (10%), Method: PREINCUBATION): inactive; negative | mutagenic call (Test System: AMES SALMONELLA TYPHIMURIUM, Strain/Indicator: TA98, Metabolic Activation: HAMSTER, LIVER, S-9, AROCLOR 1254 (30%), Method: PREINCUBATION): active; positive | mutagenic call (Test System: AMES SALMONELLA TYPHIMURIUM, Strain/Indicator: TA98, Metabolic Activation: NONE, Method: PREINCUBATION): inactive; negative | mutagenic call (Test System: AMES SALMONELLA TYPHIMURIUM, Strain/Indicator: TA98, Metabolic Activation: RAT, LIVER, S-9, AROCLOR 1254 (10%), Method: PREINCUBATION): inactive; negative | mutagenic call (Test System: AMES SALMONELLA TYPHIMURIUM, Strain/Indicator: TA98, Metabolic Activation: RAT, LIVER, S-9, AROCLOR 1254 (30%), Method: PREINCUBATION): inactive; negative | mutagenic call (Test System: AMES SALMONELLA TYPHIMURIUM, Strain/Indicator: TA100, Metabolic Activation: HAMSTER, LIVER, S-9, AROCLOR 1254 (10%), Method: PREINCUBATION): active; positive | mutagenic call (Test System: AMES SALMONELLA TYPHIMURIUM, Strain/Indicator: TA100, Metabolic Activation: HAMSTER, LIVER, S-9, AROCLOR 1254 (30%), Method: PREINCUBATION): active; positive | mutagenic call (Test System: AMES SALMONELLA TYPHIMURIUM, Strain/Indicator: TA100, Metabolic Activation: RAT, LIVER, S-9, AROCLOR 1254 (10%), Method: PREINCUBATION): active; positive | mutagenic call (Test System: AMES SALMONELLA TYPHIMURIUM, Strain/Indicator: TA100, Metabolic Activation: RAT, LIVER, S-9, AROCLOR 1254 (30%), Method: PREINCUBATION): active; positive | mutagenic call (Test System: AMES SALMONELLA TYPHIMURIUM, Strain/Indicator: TA1535, Metabolic Activation: HAMSTER, LIVER, S-9, AROCLOR 1254 (10%), Method: PREINCUBATION): inactive; negative | mutagenic call (Test System: AMES SALMONELLA TYPHIMURIUM, Strain/Indicator: TA1535, Metabolic Activation: HAMSTER, LIVER, S-9, AROCLOR 1254 (30%), Method: PREINCUBATION): inactive; negative | mutagenic call (Test System: AMES SALMONELLA TYPHIMURIUM, Strain/Indicator: TA1535, Metabolic Activation: NONE, Method: PREINCUBATION): inactive; negative | mutagenic call (Test System: AMES SALMONELLA TYPHIMURIUM, Strain/Indicator: TA1535, Metabolic Activation: RAT, LIVER, S-9, AROCLOR 1254 (10%), Method: PREINCUBATION): inactive; negative | mutagenic call (Test System: AMES SALMONELLA TYPHIMURIUM, Strain/Indicator: TA1535, Metabolic Activation: RAT, LIVER, S-9, AROCLOR 1254 (30%), Method: PREINCUBATION): inactive; negative

O=c1nc(NNCCO)ccn1[C@@H]1O[C@H](CO)[C@@H](O)[C@H]1O
mutagenic call (Test System: CHINESE HAMSTER V-79, Strain/Indicator: V-79/6-THIOGUANINE, Metabolic Activation: NONE, Method: REPLATING): active; positive
